Several values for one entry are separate records, joined by “and”; a condition that tells them apart may be missing. Equal values may be shown once. Inconclusive results are not listed.

This assay deals with BDF1 mice, s.c. Lewis lung carcinoma, T/C %. In words: NCI In Vivo Anticancer Drug Screen. Data for tumor model Lewis Lung Carcinoma (subcutaneous) in B6D2F1 (BDF1) mice. The essentials:
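Transplanted tumors grown in mice; compound vs vehicle dosing; endpoint survival or tumor size; ratio T/C.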

Setting [1] is: endpoint: mean tumor weight, dose: 25.0 mg/kg/injection, schedule: Q01DX011 (ip), vehicle: saline, higher = larger tumour.
Setting [2] is: endpoint: mean tumor weight, dose: 50.0 mg/kg/injection, schedule: Q01DX011 (ip), vehicle: saline, higher = larger tumour.
[3] abbreviates: endpoint: mean tumor weight, dose: 15.0 mg/kg/injection, schedule: Q01DX011 (ip), vehicle: saline, higher = larger tumour.
The mark [4] stands for this setting: endpoint: mean tumor weight, dose: 30.0 mg/kg/injection, schedule: Q01DX011 (ip), vehicle: saline, higher = larger tumour.
[5] abbreviates: endpoint: mean tumor weight, dose: 200.0 mg/kg/injection, schedule: Q01DX011 (ip), vehicle: saline, higher = larger tumour.

Take `COc1cc2c3c(c1)/C(=N\Nc1ccccc1)CCN3CCC2`: the T/C by setting is: (endpoint: median survival time, dose: 0.78 mg/kg/injection, schedule: Q01DX009 (ip), vehicle: DMSO, higher = longer survival) 112 % of control; (endpoint: median survival time, dose: 3.0 mg/kg/injection, schedule: Q01DX009 (ip), vehicle: DMSO, higher = longer survival) 124 % of control.

With `O=c1c(O)c(-c2ccc(O)c(O)c2)oc2cc(O)ccc12`, the T/C by setting is: (endpoint: mean tumor weight, dose: 12.5 mg/kg/injection, schedule: Q01DX011 (ip), vehicle: saline, higher = larger tumour) 99 % of control; under setting [1], 95 % of control; under setting [2], 91 % of control.

Regarding `CNC(=S)N/N=C/c1ccc([N+](=O)[O-])s1`, the T/C (endpoint: median survival time, dose: 25.0 mg/kg/injection, schedule: Q01DX009 (ip), vehicle: saline with Tween-80, higher = longer survival) is 121 % of control.

Regarding `CNC(=O)N(C)c1cc(N(C)C)nc(OC)n1`, the T/C reads like this: (endpoint: median survival time, dose: 5.0 mg/kg/injection, schedule: Q01DX009 (ip), vehicle: Klucel (hydroxypropylcellulose) (HPC), higher = longer survival) 98 % of control; (endpoint: median survival time, dose: 10.0 mg/kg/injection, schedule: Q01DX009 (ip), vehicle: Klucel (hydroxypropylcellulose) (HPC), higher = longer survival) 115 % of control.

In the case of `O=C(Nc1ccc(C2=NCCN2)cc1)c1ccc(C(=O)Nc2ccc(C3=NCCN3)cc2)c([N+](=O)[O-])c1`, the T/C by setting is: (endpoint: mean tumor weight, dose: 4.0 mg/kg/injection, schedule: Q01DX011 (ip), vehicle: saline, higher = larger tumour) 122 % of control; (endpoint: mean tumor weight, dose: 8.0 mg/kg/injection, schedule: Q01DX011 (ip), vehicle: saline, higher = larger tumour) 85 % of control; (endpoint: mean tumor weight, dose: 16.0 mg/kg/injection, schedule: Q01DX011 (ip), vehicle: saline, higher = larger tumour) 26 % of control.

For `OCCc1ccccc1`, the T/C is, setting by setting: (endpoint: mean tumor weight, dose: 62.5 mg/kg/injection, schedule: Q01DX011 (ip), vehicle: saline, higher = larger tumour) 95 % of control; (endpoint: mean tumor weight, dose: 125.0 mg/kg/injection, schedule: Q01DX011 (ip), vehicle: saline, higher = larger tumour) 107 % of control; (endpoint: mean tumor weight, dose: 250.0 mg/kg/injection, schedule: Q01DX011 (ip), vehicle: saline, higher = larger tumour) 75 % of control.

`C[N+](C)(C)c1ncnc2nc[nH]c12`: the T/C is 87 % of control under setting [3]; 100 % of control under setting [4]; 55 % of control (endpoint: mean tumor weight, dose: 60.0 mg/kg/injection, schedule: Q01DX011 (ip), vehicle: saline, higher = larger tumour); 59 % of control (endpoint: mean tumor weight, dose: 120.0 mg/kg/injection, schedule: Q01DX011 (ip), vehicle: saline, higher = larger tumour).

Turning to `CN(N=O)C(N)=O`, the T/C reads like this: (endpoint: mean tumor weight, dose: 2.5 mg/kg/injection, schedule: Q01DX011 (ip), vehicle: saline, higher = larger tumour) 78 % of control; (endpoint: mean tumor weight, dose: 5.0 mg/kg/injection, schedule: Q01DX011 (ip), vehicle: saline, higher = larger tumour) 77 % of control; (endpoint: mean tumor weight, dose: 10.0 mg/kg/injection, schedule: Q01DX011 (ip), vehicle: saline, higher = larger tumour) 57 % of control; (endpoint: mean tumor weight, dose: 20.0 mg/kg/injection, schedule: Q01DX011 (ip), vehicle: saline, higher = larger tumour) 20 % of control.

Regarding `C=C1C(=O)O[C@H]2C1[C@H](OC(=O)/C(C)=C\COC(C)=O)C[C@]1(CO1)[C@@H]1[C@H](O)[C@H]3O[C@@]3(C)[C@@H]12` (some centres not stated), the T/C is 86 % of control (endpoint: median survival time, dose: 3.12 mg/kg/injection, schedule: Q01DX009 (ip), vehicle: other, higher = longer survival); 89 % of control (endpoint: median survival time, dose: 6.25 mg/kg/injection, schedule: Q01DX009 (ip), vehicle: other, higher = longer survival); 97 % of control (endpoint: median survival time, dose: 12.5 mg/kg/injection, schedule: Q01DX009 (ip), vehicle: other, higher = longer survival); 99 % of control (endpoint: median survival time, dose: 25.0 mg/kg/injection, schedule: Q01DX009 (ip), vehicle: other, higher = longer survival).

Regarding `O=c1[nH]c(=O)n(C2CC(O)C(CO)O2)cc1C(F)(F)F` (configuration not stated), the T/C by setting is: (endpoint: median survival time, dose: 2.5 mg/kg/injection, schedule: Q01DX009 (ip), vehicle: saline, higher = longer survival) 119 % of control; (endpoint: median survival time, dose: 5.0 mg/kg/injection, schedule: Q01DX009 (ip), vehicle: saline, higher = longer survival) 103 % of control; (endpoint: median survival time, dose: 10.0 mg/kg/injection, schedule: Q01DX009 (ip), vehicle: saline, higher = longer survival) 118 % of control.

Take `CCC(=O)NC1=C(N2CC2)C(=O)C(NC(=O)CC)=C(N2CC2)C1=O`: the T/C was 72 % of control (endpoint: mean tumor weight, dose: 1.8 mg/kg/injection, schedule: Q01DX011 (ip), vehicle: other, higher = larger tumour); 54 % of control (endpoint: mean tumor weight, dose: 2.7 mg/kg/injection, schedule: Q01DX011 (ip), vehicle: other, higher = larger tumour); 27 % of control (endpoint: mean tumor weight, dose: 4.0 mg/kg/injection, schedule: Q01DX011 (ip), vehicle: other, higher = larger tumour); 28 % of control (endpoint: mean tumor weight, dose: 6.0 mg/kg/injection, schedule: Q01DX011 (ip), vehicle: other, higher = larger tumour).

`CCC(c1ccc(OC(=O)Cc2ccc(N(CCCl)CCCl)cc2)cc1)C(CC)c1ccc(OC(=O)Cc2ccc(N(CCCl)CCCl)cc2)cc1` (configuration not stated): the T/C (endpoint: median survival time, dose: 6.25 mg/kg/injection, schedule: Q01DX009 (ip), vehicle: Klucel (hydroxypropylcellulose) (HPC), higher = longer survival) was 102 % of control; the T/C (endpoint: median survival time, dose: 12.5 mg/kg/injection, schedule: Q01DX009 (ip), vehicle: Klucel (hydroxypropylcellulose) (HPC), higher = longer survival) is 104 % of control; the T/C (endpoint: median survival time, dose: 25.0 mg/kg/injection, schedule: Q01DX009 (ip), vehicle: Klucel (hydroxypropylcellulose) (HPC), higher = longer survival) is 104 % of control; the T/C (endpoint: median survival time, dose: 25.0 mg/kg/injection, schedule: Q02DX009 (ip), vehicle: saline with Tween-80, higher = longer survival) was 86 % of control; the T/C (endpoint: median survival time, dose: 50.0 mg/kg/injection, schedule: Q02DX009 (ip), vehicle: saline with Tween-80, higher = longer survival) was 88 % of control; the T/C (endpoint: median survival time, dose: 100.0 mg/kg/injection, schedule: Q02DX009 (ip), vehicle: saline with Tween-80, higher = longer survival) is 94 % of control.

On to `Nc1nc2[nH]c(=O)cnc2c(=O)[nH]1`, for which the T/C (endpoint: median survival time, dose: 12.5 mg/kg/injection, schedule: Q01DX009 (ip), vehicle: saline with Tween-80, higher = longer survival) was 97 % of control; the T/C (endpoint: median survival time, dose: 50.0 mg/kg/injection, schedule: Q01DX009 (ip), vehicle: saline with Tween-80, higher = longer survival) is 99 % of control; the T/C (endpoint: median survival time, dose: 100.0 mg/kg/injection, schedule: Q01DX009 (ip), vehicle: saline, higher = longer survival) was 104 % of control; the T/C (endpoint: median survival time, dose: 200.0 mg/kg/injection, schedule: Q01DX009 (ip), vehicle: saline, higher = longer survival) is 104 % of control; the T/C (endpoint: median survival time, dose: 400.0 mg/kg/injection, schedule: Q01DX009 (ip), vehicle: saline, higher = longer survival) was 110 % of control.

Consider `C/C(=N\N=C(/C)c1ccc(-c2ccccc2)cc1)c1ccc(-c2ccccc2)cc1`, for which the T/C under setting [1] was 84 % of control; the T/C under setting [2] is 85 % of control; the T/C (endpoint: mean tumor weight, dose: 100.0 mg/kg/injection, schedule: Q01DX011 (ip), vehicle: saline, higher = larger tumour) is 76 % of control; the T/C under setting [5] was 46 % of control.

Regarding `CC(C)=CCC/C(C)=C/C=O`, the T/C was 84 % of control (endpoint: mean tumor weight, dose: 50.0 mg/kg/injection, schedule: Q01DX010 (ip), vehicle: saline, higher = larger tumour) and 61 % of control (endpoint: mean tumor weight, dose: 100.0 mg/kg/injection, schedule: Q01DX010 (ip), vehicle: saline, higher = larger tumour).

As for `C#C[C@]1(O)CC[C@H]2[C@@H]3CCc4cc(O)ccc4[C@H]3CC[C@@]21C`, the T/C reads like this: (endpoint: median survival time, dose: 1.25 mg/kg/injection, schedule: Q02DX009 (ip), vehicle: Klucel (hydroxypropylcellulose) (HPC), higher = longer survival) 88 % of control; (endpoint: median survival time, dose: 2.5 mg/kg/injection, schedule: Q02DX009 (ip), vehicle: Klucel (hydroxypropylcellulose) (HPC), higher = longer survival) 92 % of control; (endpoint: median survival time, dose: 5.0 mg/kg/injection, schedule: Q02DX009 (ip), vehicle: Klucel (hydroxypropylcellulose) (HPC), higher = longer survival) 96 % of control; (endpoint: median survival time, dose: 10.0 mg/kg/injection, schedule: Q02DX009 (ip), vehicle: Klucel (hydroxypropylcellulose) (HPC), higher = longer survival) 91 % of control and 101 % of control; (endpoint: median survival time, dose: 20.0 mg/kg/injection, schedule: Q02DX009 (ip), vehicle: Klucel (hydroxypropylcellulose) (HPC), higher = longer survival) 104 % of control; (endpoint: median survival time, dose: 40.0 mg/kg/injection, schedule: Q02DX009 (ip), vehicle: Klucel (hydroxypropylcellulose) (HPC), higher = longer survival) 108 % of control and 120 % of control.

With `O=C(O)c1cc(O)c(O)c(O)c1`, the T/C under setting [2] is 111 % of control; the T/C under setting [5] was 89 % of control; the T/C (endpoint: mean tumor weight, dose: 400.0 mg/kg/injection, schedule: Q01DX011 (ip), vehicle: saline, higher = larger tumour) is 99 % of control.

As for `C=C1C(=O)O[C@H]2[C@H]1[C@H](OC(=O)/C(C)=C\C)CC(=C)[C@@H]1[C@H](O)[C@H]3O[C@@]3(C)[C@@]12O`, the T/C is 63 % of control (endpoint: mean tumor weight, dose: 7.5 mg/kg/injection, schedule: Q01DX011 (ip), vehicle: saline, higher = larger tumour); 70 % of control under setting [3]; 63 % of control under setting [4].

These data come from PubChem BioAssay AID270 (DTP/NCI, 2004).
